The text below walks through data of patent US20190038556A1, “FORMULATIONS AND CARRIER SYSTEMS INCLUDING COMPOUND INTERACTIVE DOMAINS” (University of Pittsburgh - Of The Commonwealth System of …, priority 2012, published 2019).

Data set [1] can be described thus: Solubilization of tested agents with multi-chain PEGylated micelle-forming surfactants (Table 1). From the text:
The exact mechanism for the protection of ECGC against oxygen in the form of complex is unknown.

Data set [2] in a line: Oxidation of ECGC in PBS on exposure to air. Type of data set: physicochemical. Conditions: exposed to air, free 24 hrs, complex over a week.
Data set [3] is described as follows: Particle size measurement by laser dynamic light scattering. In kind it is physicochemical. The conditions noted are these: agent formulated with multi-chain PEGylated micelle-forming surfactant. Here is the method:
1(f). Particle size measurement. […] Samples were further diluted ten times in distilled water and sizes were measured by laser dynamic light scattering using a particle sizer (Zetasizer Nano ZS instrument, available from Malvern Instruments Ltd of Worcestershire, United Kingdom). Size measurement of emulsion particles were conducted using a Coulter N4 particle sizer after a 100-fold dilution in saline.

Data set [4] relates to PC-3 human prostate cancer cell line. The data set is described as follows: In vitro cytotoxicity (MTT), PC-3. Type of data set: cell-based. Conditions: PC-3, 72 h, FIG. 14B. Here is the method: (§1) The tumor-inhibitory efficacy of PEG-Fmoc/PTX was also investigated both in vitro and in vivo. In vitro cytotoxicity of PEG-Fmoc/PTX was evaluated in mouse metastatic breast cancer cell line 4T1.2, and two human prostate cancer cell lines, PC-3 and DU145. […] Without limitation to any mechanism, the increased cytotoxicity of PEG-Fmoc/PTX may, for example, be attributable to facilitated entry of PTX into tumor cells.
(§2) 2(b)(viii). In Vitro Cytotoxicity. Mouse metastatic breast cancer cell line 4T1.2, and two human prostate cancer cell lines PC-3 and DU145 were utilized to evaluate the in vitro cytotoxicity of PTX/PEG-Fmoc2. Cells were seeded in 96-well plates at 1000 (4T1.2), 2000 (DU145) and 3000 (PC-3) cells per well. […] Seventy-two h later, 20 μL of 3-(4,5-dimethylthiazol-2-yl)-2,5-diphenyltetrazoliumbromide (MTT, 5 mg/mL) was added into each well. Following incubation for 4 h, the medium was removed and 150 μL of DMSO was added to each well to solubilize the formazan crystal. The absorbance of each well was detected at 550 nm with a reference wavelength at 630 nm using a microplate reader, and cell viability was calculated based on the formula below. Untreated cells were included as a control.
(§3) % cytotoxicity=[1−(ODtreat−ODblank)/(ODcontrol−ODblank)]×100%

The nature of data set [5]: CMC measurement with pyrene as a fluorescence probe. In kind it is physicochemical. Here is the method:
(§4) The size distribution of PTX/PEG-Fmoc2 mixed nanomicelles was examined by dynamic light scattering (DLS) via a Malvern Zeta Nanosizer, and the morphology was observed by transmission electron microscopy (TEM) after negative staining. The CMC measurement was performed as reported before with pyrene as a fluorescence probe. To quantify PTX in the micelles, PTX was extracted by methanol, and detected by Waters Alliance 2695-2998 high-performance liquid chromatography (HPLC) system with a RP-18 column (250 mm×4.6 mm) equipped with a UV detector at 227 nm at room temperature. A mixture of methanol/water (80:20, v/v) was used as mobile phase at a flow rate at 0.8 mL/min. The drug loading capacity (DLC) and efficiency (DLE) were calculated as set forth above.

In data set [6] the test system is 4T1.2 mouse metastatic breast cancer cell line. In words: In vitro cytotoxicity (MTT), 4T1.2. In kind it is cell-based. The conditions noted are these: 4T1.2, 72 h, FIG. 14A. Here is the method:
as §1, §2, §3

A short description of data set [7]: Size distribution of PTX/PEG-Fmoc2 mixed nanomicelles (DLS). In kind it is physicochemical. Here is the method:
2(b)(iv). Preparation and biophysical characterization of PTX/PEG-Fmoc2 mixed micelles. Thin-film hydration method was utilized for preparation of PTX/PEG-Fmoc2 mixed nanomicelles. PEG-Fmoc2 and PTX in chloroform were well mixed in a glass tube at designated molar ratios. A thin film of carrier/drug mixture was generated through removal of the organic solvent by a gentle stream of nitrogen. The trace amount of solvent was further removed via vacuum for 2 h. Then the film was hydrated and suspended in DPBS by vortex to obtain a clear solution of PTX/PEG-Fmoc2 mixed nanomicelles. Any non-entrapped drug was removed by filtration through 220 nm PVDF syringe filter.
as §4

The test system of data set [8] is DU145 human prostate cancer cell line. In words: In vitro cytotoxicity (MTT), DU145. Type of data set: cell-based. The conditions noted are these: DU145, 72 h, FIG. 14C. Here is the method:
as §1, §2, §3

For data set [9], the system named is rat red blood cells. In words: Hemolysis assay. In kind it is cell-based. The conditions noted are these: 2 hrs at 37° C., 5 mM. Here is the method: We also examined the hemolytic activity of plain micelles prepared from PEG-lipid and lipopeptide conjugates on rat red blood cells and compared the results to two widely used ethoxylated nonionic surfactants: Triton X-100 and Tween 80. In the studies of FIG. 6, rat red blood cells (1%) were incubated with surfactants at indicated concentrations for 2 hrs at 37° C. After such incubation, supernatants were carefully withdrawn, measured for at OD540 nm, and calculated based on OD value under a condition that total hemolysis occurred.
1(j). Hemolysis assay. Rat red blood cells (RBCs) were isolated from freshly collected rat blood with added anticoagulant by washing three times with 10 volumes of cold PBS (1500 rpm for 10 min). RBCs were then diluted to 2% w/v with ice cold DPBS and utilized immediately for the hemolysis assay. One mL of diluted RBC suspension was treated with various concentrations (0-5 mM) of PEG-lipopeptides, Tween 80, and Triton X-100, respectively, and then incubated at 37° C. in an incubator shaker for 2 h. The samples were centrifuged at 1500 rpm for 10 min at 4° C., and 100 μL of supernatant from each sample was transferred into a 96-well plate. The release of hemoglobin was determined by the absorbance at 540 nm using a micro-plate reader. […] Hemoglobin release was calculated as (ODsample−ODnegative control)/(ODpositive control−ODnegative control)×100%.

Data set [10] in a line: Micelle-facilitated solubilization of JP4-039. Conditions: at comparable molar ratios. In kind it is physicochemical.
Method: In the solubilization studies of FIG. 4, various amounts of tetra chain PEG5,000-lysyl-[lysyl-(α-Fmoc-ε-oleyol-lysine)2]2 were mixed with JP4-039 in CHCl3 followed by solvent evaporation, the drug-loaded micelles were prepared by hydration in saline. The amounts of solubilized JP4-030 were determined by OD448 measurements from supernatant.
Lipopeptides, amino acid derivatives or nitroxide compounds were first dissolved in chloroform. The solutions were aliquoted to a glass test tube, mixed well, then blown with a constant nitrogen stream to remove the bulk of the solvent. The residual solvent was removed by applying high vacuum for 2 hrs. To determine micelle-facilitated solubilization of JP4-039, various molar ratios of surfactant to drug were applied to make surfactant-drug mixture in water (final concentration of JP4-039 was 5 mg/mL). After at least 30 minutes, the samples were briefly centrifuged at 13,000 rpm. One half of the supernatants was recovered, to which an equal volume of ethanol was added to dissolve/disrupt micelle drug complexes. The amounts of drug in the samples were quantitated using OD448 nm.

In the case of `O=C(O[C@@H]1Cc2c(O)cc(O)cc2O[C@@H]1c1cc(O)c(O)c(O)c1)c1cc(O)c(O)c(O)c1` [EGCG, epigallocatechin gallate], the solubility entry in data set [1] (tested agent itself, Table 1) was “freely”. This compound also came in with a Soluble at in data set [1] (with multi-chain PEGylated micelle-forming surfactant) of 5 mg/mL. The Oxidation on storage result in [2] is listed as “readily oxidized”. Also, in data set [3], the “Size +/− SD” value is given as 89.9 +/− 12 nm.
In the case of “PEG5K-lysyl-(α-Fmoc-ε-t-Boc-lysine)2 [PEG-Fmoc]”, the “Cytotoxicity (tumor cell inhibition)” value in [4], in [6] and in [8] was “did not show apparent toxicity” each time. The compound also returned a CMC in data set [5] of 5.244 µM. Moreover, the “Micelle size in aqueous solution” value in data set [7] (carrier alone) is reported as 25˜30 nm. Besides, the PDI in data set [7] (drug-free carrier 5 mg/mL) was found to be 0.488. The Particle size in [7] (drug-free carrier 5 mg/mL) came to 28.55 ± 0.27 nm.
In data set [9], Triton X-100 had a Hemolysis of 100%.
On to “methoxy PEG2,000-carbamoyl-1-palmitoyl-2-oleoyl-sn-glycero-3-phosphotidylethanolamine [compound 8]”, for which, in data set [10], the “Activity in forming a stable JP4-039-containing micelle solution” value was “inactive”.
